The results in this text go back to ChEMBL document CHEMBL1201862, “PubChem BioAssay data set” (2004).

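Protocol summary: plate cells (96-well), add compound at 5 concentrations, incubate 48 h, interpolate endpoints linearly. At the GI50, growth is halved.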 The source made the active and inactive calls. No stated cut-off is given here; in the data, active = GI50 up to about 1.1 µM and inactive = higher. Some results are limits rather than exact numbers.

Some test systems named below: MDA-MB-231; MDA-MB-435; A549; Hs-578T; HOP-62; EKVX; K562; CAKI-1; PC-3; SNB-75; T47D; UO-31; RPMI-8226; DU-145; HOP-92; SR; COLO 205; SK-MEL-28; ACHN; BT-549.
Common to all, as to test: DTP human tumour cell line panel, 48 h

By GI50 is commonly meant the concentration at which growth is held to half of that of the control. On to `CCOC(=O)C1Cc2c(cc3c4c(cccc24)N(C(C)=O)C3)N(C)C1` (stereo not given), for which the GI50 in the experiment on MDA-MB-231 is 1.4 µM (inactive); with MDA-MB-435, 2.56 µM (inactive); with A549, > 100 µM (inactive); in the experiment with Hs-578T, 2.49 µM (inactive); in the experiment with HOP-62 it was > 100 µM (inactive); with EKVX, 9.59 µM (inactive). Besides, the GI50 in the experiment on K562 was 4.39 µM (inactive); with CAKI-1, 7.71 µM (inactive); in the experiment with PC-3, 4.02 µM (inactive); with SNB-75 it was 24.2 µM (inactive); in the experiment on T47D it was 5.58 µM (inactive); in the experiment with UO-31, 1.07 µM (active). In addition, the GI50 with RPMI-8226 is > 100 µM (inactive); in the experiment with DU-145, > 100 µM (inactive); in the experiment with HOP-92, 1.65 µM (inactive); in the experiment on SR it was 41.6 µM (inactive); in the experiment with COLO 205, > 100 µM (inactive); in the experiment with SK-MEL-28 it was > 100 µM (inactive). Also, the GI50 with ACHN was 7.91 µM (inactive).
For `C=CCCCN1C(=O)C2C3c4ccccc4C(C=O)(c4ccccc43)C2C1=O` (stereo not given), the GI50 in the experiment with MDA-MB-231 is 9.42 µM (inactive); in the experiment on A549, 15.2 µM (inactive); in the experiment with HOP-62, 14.5 µM (inactive); with EKVX it was 6.03 µM (inactive); with K562, 3.62 µM (inactive); in the experiment on CAKI-1, 16 µM (inactive). In addition, the GI50 is 6.18 µM (inactive) in the experiment on PC-3; 8.91 µM (inactive) in the experiment on T47D; 10.7 µM (inactive) with UO-31; 6.84 µM (inactive) in the experiment with RPMI-8226; 11.4 µM (inactive) in the experiment on DU-145; 11.3 µM (inactive) with HOP-92. For the same molecule, the GI50 is 4.79 µM (inactive) with SR, 12 µM (inactive) with COLO 205, 15.9 µM (inactive) in the experiment on SK-MEL-28 and 13.6 µM (inactive) with ACHN.
In the case of `COc1ccc(-c2nc(-c3cnccn3)n(C/C=C/c3ccccc3)n2)cc1`, the GI50 in the experiment on MDA-MB-231 was 71.1 µM (inactive); in the experiment on MDA-MB-435 it was > 100 µM (inactive); in the experiment with A549, 51.6 µM (inactive); with HOP-62, 21.5 µM (inactive); with K562 it was > 100 µM (inactive); with PC-3, > 100 µM (inactive). In addition, the GI50 in the experiment on SNB-75 is 21.8 µM (inactive); with T47D, 48.2 µM (inactive); with UO-31 it was 49.2 µM (inactive); with RPMI-8226, > 100 µM (inactive); in the experiment on DU-145, > 100 µM (inactive); with HOP-92 it was 11.5 µM (inactive). The GI50 in the experiment with SR is > 100 µM (inactive); in the experiment on BT-549, 40.7 µM (inactive); in the experiment on COLO 205, > 100 µM (inactive); in the experiment on SK-MEL-28, 35.2 µM (inactive).
Consider `C=C[C@@H]1C(CO)=CCC2[C@H]1CCC1C(C)(C)C(=O)CC[C@]21C` (stereo not given in full), for which the GI50 with MDA-MB-435, in the experiment with A549, in the experiment on Hs-578T, with HOP-62, in the experiment with EKVX and in the experiment with K562 was > 100 µM (inactive) throughout. Besides, the GI50 with CAKI-1, in the experiment on PC-3, with T47D, with UO-31, with RPMI-8226 and in the experiment on DU-145 was > 100 µM (inactive) throughout. In addition, the GI50 in the experiment on HOP-92, in the experiment with SR, with COLO 205, in the experiment on SK-MEL-28 and with ACHN was > 100 µM (inactive) each time.
As to `Oc1cn(-c2ccc(Cl)cc2)nc1-c1nnc(Nc2ccccc2)o1`, the GI50 with MDA-MB-231 is 12.4 µM (inactive); in the experiment with MDA-MB-435, 16.8 µM (inactive); in the experiment on A549, 20.4 µM (inactive); with Hs-578T, 24.1 µM (inactive); in the experiment on HOP-62 it was 17.7 µM (inactive); in the experiment on EKVX, 23.9 µM (inactive). Also, the GI50 is 32.3 µM (inactive) in the experiment on CAKI-1; 20.8 µM (inactive) in the experiment on SNB-75; 23 µM (inactive) with T47D; 14.3 µM (inactive) in the experiment on UO-31; 15.4 µM (inactive) with DU-145; 21.4 µM (inactive) in the experiment on COLO 205. The GI50 is 17.7 µM (inactive) in the experiment on SK-MEL-28 and 25.6 µM (inactive) in the experiment on ACHN.
For the molecule `O=C1CC(c2ccc[nH]2)=NN1c1ccccc1`, the GI50 is > 100 µM (inactive) with MDA-MB-231; > 100 µM (inactive) in the experiment on MDA-MB-435; > 100 µM (inactive) with A549; > 100 µM (inactive) in the experiment with HOP-62; > 100 µM (inactive) with EKVX; 73.5 µM (inactive) in the experiment with K562. Further, the GI50 in the experiment with CAKI-1, in the experiment on PC-3, with SNB-75, in the experiment on T47D, with UO-31 and with RPMI-8226 was > 100 µM (inactive) each time. The GI50 in the experiment on DU-145, in the experiment on HOP-92, in the experiment on BT-549, in the experiment on COLO 205, in the experiment on SK-MEL-28 and with ACHN was > 100 µM (inactive) in each case.
As for `Cc1cccc2c(NCCN(C)C)c3cccc(C(=O)NCCN(C)C)c3nc12`, the 50% growth inhibitory concentration (GI50) was 0.0904 µM (active) with MDA-MB-231; 0.176 µM (active) in the experiment with MDA-MB-435; 0.107 µM (active) with A549; 0.495 µM (active) with Hs-578T; 0.258 µM (active) in the experiment with HOP-62; 0.383 µM (active) with EKVX. For the same molecule, the GI50 is 0.0278 µM (active) with K562; 0.187 µM (active) in the experiment with CAKI-1; 0.356 µM (active) in the experiment on PC-3; 0.357 µM (active) in the experiment with SNB-75; 1.81 µM (inactive) with T47D; 0.326 µM (active) in the experiment with UO-31. Also, the GI50 in the experiment on RPMI-8226 is 0.0838 µM (active); in the experiment on DU-145, 0.471 µM (active); in the experiment on HOP-92, 0.218 µM (active); with SR, 0.0281 µM (active); with COLO 205, 0.173 µM (active); with SK-MEL-28, 0.199 µM (active). In the experiment on ACHN, the GI50 is 0.0489 µM (active).
For `Cn1c2ccccc2n2c(=O)c3cccnc3c(C#N)c12`, the GI50 in the experiment on MDA-MB-231 is > 100 µM (inactive); with MDA-MB-435 it was > 100 µM (inactive); in the experiment on HOP-62, 76.2 µM (inactive); in the experiment with EKVX, > 100 µM (inactive); in the experiment with CAKI-1, > 100 µM (inactive); in the experiment with SNB-75, > 100 µM (inactive). In addition, the GI50 in the experiment with T47D is > 100 µM (inactive); with RPMI-8226, > 100 µM (inactive); in the experiment on DU-145, > 100 µM (inactive); in the experiment with HOP-92, > 100 µM (inactive); in the experiment on BT-549, 17.5 µM (inactive); with COLO 205, 24.7 µM (inactive). In addition, the GI50 is > 100 µM (inactive) with SK-MEL-28 and 31.1 µM (inactive) with ACHN.
For the molecule `NC(=O)N/N=C\CC(O)(C(F)(F)Cl)C(F)(F)Cl`, the GI50 in the experiment on MDA-MB-231, in the experiment with MDA-MB-435, with A549, in the experiment on Hs-578T, in the experiment with HOP-62 and in the experiment on EKVX was > 10 µM (inactive) throughout. Besides, the GI50 in the experiment with K562, in the experiment with CAKI-1, in the experiment with PC-3, in the experiment on SNB-75, with T47D and in the experiment with UO-31 was > 10 µM (inactive) in each case. Also, the GI50 with RPMI-8226, with DU-145, with HOP-92, with SR, in the experiment on COLO 205 and in the experiment on SK-MEL-28 was > 10 µM (inactive) in each case. Besides, the GI50 in the experiment on ACHN is > 10 µM (inactive).
As to `O=C(Cc1ccccc1)NN1C(=O)/C(=C\c2ccc([N+](=O)[O-])cc2)S/C1=N\c1ccccc1`, the GI50 in the experiment on MDA-MB-231, in the experiment on MDA-MB-435, in the experiment with A549, in the experiment with Hs-578T, in the experiment on HOP-62 and in the experiment with EKVX was > 100 µM (inactive) in each case. The GI50 in the experiment with K562 is 42.5 µM (inactive); with SNB-75 it was > 100 µM (inactive); in the experiment on T47D, 62.1 µM (inactive); with UO-31, > 100 µM (inactive); in the experiment with RPMI-8226, > 100 µM (inactive); in the experiment with DU-145, > 100 µM (inactive). Further, the GI50 is 68.9 µM (inactive) with HOP-92, > 100 µM (inactive) in the experiment on COLO 205, > 100 µM (inactive) in the experiment with SK-MEL-28 and > 100 µM (inactive) in the experiment on ACHN.
On to `C=C(C)[C@H]1CC[C@@]23O[C@@H]2[C@@H](C[C@@]2(C)CC(=O)[C@H](CC(=O)C1)O2)OC(=O)[C@@]12CC[C@H](C(=C)C)CC(=O)C[C@H]4O[C@](C)(CC4=O)C[C@@H](OC3=O)[C@@H]1O2` [SINGARDIN], for which the GI50 with MDA-MB-231, with MDA-MB-435, in the experiment on A549, in the experiment on HOP-62, in the experiment with EKVX and in the experiment on K562 was > 100 µM (inactive) each time. Further, the GI50 in the experiment on CAKI-1, in the experiment with PC-3, in the experiment on SNB-75, in the experiment on T47D, with UO-31 and in the experiment on RPMI-8226 was > 100 µM (inactive) throughout. Further, the GI50 with DU-145, with HOP-92, in the experiment on COLO 205, in the experiment with SK-MEL-28 and in the experiment on ACHN was > 100 µM (inactive) each time.
